Experimental data from patent US20170312334A1, “METHODS AND COMPOSITIONS FOR TREATING INFLAMMATORY DISORDERS” (ROGNE BIOSCIENCE INC., priority 2014, published 2017).

Assays:
NF-κB [1] = assay: NF-κB activation assay: camptothecin induced NF-κB nuclear binding; type: cell-based; details: camptothecin 10 μM to 10 nM
Protocol: Treatment of the nuclear extract with the p65 antibody results in a significant decrease in NF-κB/DNA binding. As a negative control, cells are left inactivated and nuclear extracts are treated with the NF-κB consensus sequence, illustrating only a slight background level of NT-κB.
Inhibition of camptothecin mediated activation of NF-κB by the agents disclosed herein is as follows: Induction of NF-κB activation can proceed via a wide range of signaling pathways (Delhase et al., Science 284: 309-313 (1999); Karin, Oncogene 18: 6867-6874 (1999)). Inhibition of NF-κB activation can proceed via the inhibition of many different pathways (Epinat and Gilmore, Oncogene 18: 6896-6909 (1999)). […]
Human Jurkat leukemia T-cells (clone E6-1; Amer. Type Culture Collection, Rockville, Md.) are grown in RPMI-1640 Media (Gibco-BRL, Rockville, Md.) supplemented with 10% fetal bovine serum, penicillin (614 ng/mL), streptomycin (10 μg/mL) and HEPES buffer, pH 7.2 at 37° C., 5% CO2. […] The protein concentration of the extracts is determined according to the Method of Bradford (1976) with BioRad reagents. […] After electrophoresis the gel is analyzed using a phosphorimager (Biorad FX plus) for detection of the NF-κB-DNA binding.

RANTES [2] = assay: Inhibition of LPS/IFNγ-induced cytokine expression (RANTES); type: cell-based
TNFα = assay: Inhibition of LPS/IFNγ-induced cytokine expression (TNFα); type: cell-based
RANTES [3] = assay: Newly synthesized RANTES in human macrophages (FIG. 18C); type: cell-based
NF-κB [4] = assay: Modulation of NF-κB activity compared with steroid (FIG. 17); type: cell-based; details: FIG. 17A/17B
[5] = test system: imiquimod-induced dermal inflammation; assay: Imiquimod-induced psoriasis-like skin inflammation model in mice; details: topically applied, in vivo, mice (FIG. 15)
Protocol: Psoriasis is induced by imiquimod applied to the back and ears of the test animals. The initial signs of the disease are observed within 5-6 days as redness and the appearance of plaque type psoriasis, and the disease progresses onto the entire back of the animal.
The study is carried out on female BALC/c mice, 9-10 weeks old at study initiation. […] The animals are divided into group 1 (naïve), group 2 (vehicle+IMQ), group 3 (C15 peptide test agent+IMQ) and group 4 (C15 peptide test agent+IMQ).
The animals are examined for signs of psoriasis on study day 1. These scores served as a baseline for the psoriasis clinical score parameter. Starting from IMQ cream application on day 1, psoriasis responses are examined from day 5 until termination of the study.
Psoriasis reactions (erythema and plaques) are scored and recorded. For plaques, a scale of 0-7 is used with 0 being normal and 7 being no fur with small red dots covering 50%-100% of the back. For erythema, a scale of 0-4 is used with 0 being normal and 4 being very marked. The clinical score is determined by summing the score of each section. The final psoriasis score is the sum of the erythema score and the plaques score.
Right ear thickness is measured before psoriasis induction on study day 1 (baseline). […] Right ear thickness is then measured on study days 5, 8 and 10 (study termination). […]

[6] = test system: NF-κB-regulated cytokines; assay: Secretion of NF-κB-regulated cytokines by mouse macrophages (FIG. 18B); type: cell-based

Molecule: CC[C@@]1(O)C(=O)OCc2c1cc1n(c2=O)Cc2cc3ccccc3nc2-1 [camptothecin]
- NF-κB/DNA binding due to NF-κB activation (NF-κB [1]): significant amount of NF-κB/DNA binding

Molecule: NNNNNNNNNN
- Percent Inhibition of LPS/IFNγ-induced Cytokine Expression (RANTES [2]): 0%
- Percent Inhibition of LPS/IFNγ-induced Cytokine Expression (TNFα): 1%

Molecule: AGEDPHSFYFPGQFA (listed as Homo sapiens) [human C15 peptide]
- reduction of newly synthesized RANTES (RANTES [3]; human macrophages (FIG. 18C)): > 90%
- potency relative to steroid (Dex) (RANTES [3]; human macrophages, RANTES (FIG. 18C)): 10^6 time
- NF-κB activity modulation relative to steroid (NF-κB [4]): modulates NF-κB activity more potently than steroid
- imiquimod-induced dermal inflammation [5]: reduces imiquimod-induced dermal inflammation in vivo in a dose dependent manner
- secretion of NF-κB-regulated cytokines [6]: reduced
